How the values were obtained:
Format in all cases: cell-based
[1] = molecular target: T1, hM3 (human Muscarinic receptor subtype 3) (Homo sapiens, UniProt P20309); test: Human M3 calcium mobilization FLIPR assay; settings: hM3 expressed in CHO cells, intracellular Ca2+ release, read-out: hM3 EC50
T1 construct: expressed in transfected cells; host or cells: CHO cells (Chinese hamster ovary cells, ATCC)
Experimental: (§1) Human M1, rat M1, human M3 and human M5 Calcium Mobilization FLIPR™ Assay
(§2) The compound activity in the present invention (EC50 or IC50) is measured using a 384 plate-based imaging assay that monitors drug induced intracellular Ca^2+ release in whole cells. Activation of hM1 (human Muscarinic receptor subtype 1, gene bank access NM_000738), rM1 (rat Muscarinic receptor subtype 1, gene bank access NM_080773), hM3 (human Muscarinic receptor subtype 3, gene bank access NM_000740NM_000740) and hM5 (human Muscarinic receptor subtype 5, gene bank access NM_0121258), receptors expressed in CHO cells (Chinese hamster ovary cells, ATCC) is quantified in a Molecular Devices FLIPR II™ instrument as an increase in fluorescent signal. Inhibition of hM3 and hM5 by compounds is determined by the decrease in fluorescent signal in response to 2 nM acetylcholine activation.
(§3) Prior to experiment, the cell culture medium is removed from the plates by inversion. […] Plates are incubated at 37° C. for 60 minutes prior to start the experiment. The incubation is terminated by washing the cells four times in assay buffer, leaving a residual 25 μl buffer per well. Cell plates are then transferred to the FLIPR, ready for compound additions.
(§4) The day of experiment, acetylcholine and compounds are diluted in assay buffer in three-fold concentration range (10 points serial dilution) for addition by FLIPR instrument. For all calcium assays, a baseline reading is taken for 10 seconds followed by the addition of 12.5 μl of compounds, resulting in a total well volume of 37.5 μl. Data is collected every second for 60 pictures and then every 6 seconds for 20 pictures prior to the addition of agonist. For hM3 and hM5, before agonist addition, a second baseline reading is taken for 10 seconds followed by the addition of 12.5 μl of agonist or buffer, producing a final volume of 50 μl. After agonist stimulation, the FLIPR continues to collect data every second for 60 pictures and then every 6 seconds for 20 pictures. The fluorescence emission is read using filter 1 (emission 510-570 nm) by the FLIPR on board CCD camera.
(§5) Calcium mobilization output data are calculated as the maximal relative fluorescence unit (RFU) minus the minimal value for both compound and agonist reading frame (except for hM1 and rM1 using only the maximal RFU). Data are analyzed using sigmoidal fits of a non-linear curve-fitting program (XLfit version 4.2.2 Excel add-in version 4.2.2 build 18 math 1Q version 2.1.2 build 18). All pEC50 and plC50 values are reported as arithmetic means ±standard error of mean of ‘n’ independent experiments.

[2] = molecular target: T2, hM5 (human Muscarinic receptor subtype 5) (Homo sapiens, UniProt P08912); test: Human M5 calcium mobilization FLIPR assay; settings: hM5 expressed in CHO cells, intracellular Ca2+ release, read-out: hM5 EC50
T2 construct: expressed in transfected cells; host or cells: CHO cells (Chinese hamster ovary cells, ATCC)
T2 sequence (P08912 1-532): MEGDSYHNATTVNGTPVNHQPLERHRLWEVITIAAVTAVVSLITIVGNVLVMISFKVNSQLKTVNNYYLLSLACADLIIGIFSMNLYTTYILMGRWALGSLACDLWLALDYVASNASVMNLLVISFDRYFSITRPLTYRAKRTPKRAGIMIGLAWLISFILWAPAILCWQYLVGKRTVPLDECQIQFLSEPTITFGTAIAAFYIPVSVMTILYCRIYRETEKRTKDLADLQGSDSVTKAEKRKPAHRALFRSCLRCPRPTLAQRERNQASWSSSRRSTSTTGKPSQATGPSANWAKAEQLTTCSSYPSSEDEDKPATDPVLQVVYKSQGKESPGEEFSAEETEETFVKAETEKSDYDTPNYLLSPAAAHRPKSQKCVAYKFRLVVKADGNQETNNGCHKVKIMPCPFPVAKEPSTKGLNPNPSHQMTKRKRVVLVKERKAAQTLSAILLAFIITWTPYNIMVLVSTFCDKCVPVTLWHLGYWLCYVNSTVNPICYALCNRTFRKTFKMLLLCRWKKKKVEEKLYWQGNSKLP
Experimental: as §1, §2, §3, §4, §5

[3] = molecular target: T3, hM1 (human Muscarinic receptor subtype 1) (Homo sapiens, UniProt P11229); test: Human M1 calcium mobilization FLIPR assay; settings: hM1 expressed in CHO cells, intracellular Ca2+ release, read-out: hM1 EC50
T3 construct: expressed in transfected cells; host or cells: CHO cells (Chinese hamster ovary cells, ATCC)
T3 sequence (P11229 1-460): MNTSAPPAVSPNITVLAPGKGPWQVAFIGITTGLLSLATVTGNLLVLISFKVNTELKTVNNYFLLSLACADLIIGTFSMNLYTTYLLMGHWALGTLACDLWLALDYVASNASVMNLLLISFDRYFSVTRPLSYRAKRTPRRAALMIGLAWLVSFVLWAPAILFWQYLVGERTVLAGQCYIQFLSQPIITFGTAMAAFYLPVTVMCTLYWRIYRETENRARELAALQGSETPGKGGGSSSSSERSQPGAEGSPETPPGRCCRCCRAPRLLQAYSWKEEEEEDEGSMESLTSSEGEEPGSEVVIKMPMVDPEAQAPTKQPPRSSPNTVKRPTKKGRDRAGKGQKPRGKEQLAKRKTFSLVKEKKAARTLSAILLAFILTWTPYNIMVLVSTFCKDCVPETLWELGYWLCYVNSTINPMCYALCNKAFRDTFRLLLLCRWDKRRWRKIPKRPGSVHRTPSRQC
How it was run: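 CHO cells expressing the receptor, dye-loaded at 37°C for 60 min, read on FLIPR at 510-570 nm. Agonism taken from compound-induced Ca2+ rise (max RFU for M1); M3/M5 inhibition measured against 2 nM acetylcholine using max minus min RFU. 10-point threefold dilutions, sigmoidal fits.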

T1 sequence (P20309 whole entry): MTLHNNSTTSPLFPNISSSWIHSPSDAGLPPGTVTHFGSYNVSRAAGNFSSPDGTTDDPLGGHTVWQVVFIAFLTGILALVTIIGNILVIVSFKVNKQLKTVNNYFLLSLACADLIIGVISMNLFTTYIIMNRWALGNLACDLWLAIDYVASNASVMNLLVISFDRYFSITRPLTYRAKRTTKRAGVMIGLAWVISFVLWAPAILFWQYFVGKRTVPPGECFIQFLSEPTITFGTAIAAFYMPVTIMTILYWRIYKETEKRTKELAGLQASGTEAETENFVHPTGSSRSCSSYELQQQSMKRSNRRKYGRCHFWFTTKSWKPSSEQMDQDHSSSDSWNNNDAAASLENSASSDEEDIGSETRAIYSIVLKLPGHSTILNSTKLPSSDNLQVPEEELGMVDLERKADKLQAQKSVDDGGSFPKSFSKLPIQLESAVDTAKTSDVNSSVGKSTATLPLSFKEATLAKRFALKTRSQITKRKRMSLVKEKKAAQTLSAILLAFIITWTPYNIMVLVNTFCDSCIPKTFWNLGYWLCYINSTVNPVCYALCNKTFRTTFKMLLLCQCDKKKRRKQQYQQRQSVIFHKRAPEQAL

SMILES | EC50 [1] [µM] | EC50 [2] [µM] | EC50 [3] [µM]
COC(=O)N1CCC(C)(N2CCC(n3c(=O)[nH]c4ccc(F)cc43)CC2)C1 (single isomer, unassigned) [Example 52, methyl 3-(4-(6-fluoro-2-oxo-2,3-dihydro-1H-benzo[d]imidazol-1-yl)piperidin-1-yl)-3-methylpyrrolidine-1-carboxylate] | > 40 | > 9.63 | 0.0147
CC1(N2CCC(n3c(=O)[nH]c4ccc(F)cc43)CC2)CCN(C(=O)OCCF)C1 (single isomer, unassigned) [Example 53, 2-fluoroethyl 3-(4-(6-fluoro-2-oxo-2,3-dihydro-1H-benzo[d]imidazol-1-yl)piperidin-1-yl)-3-methylpyrrolidine-1-carboxylate] | > 40 | > 6.16 | 0.0115
CCOC(=O)N1CCC(C)(N2CCC(n3c(=O)[nH]c4cc(F)c(C)cc43)CC2)C1 (single isomer, unassigned) [Example 55, ethyl 3-(4-(5-fluoro-6-methyl-2-oxo-2,3-dihydro-1H-benzo[d]imidazol-1-yl)piperidin-1-yl)-3-methylpyrrolidine-1-carboxylate] | > 40 | 1.82 | 0.0049
CCOC(=O)N1CCC(C)(N2CCC(n3c(=O)[nH]c4cc(F)c(C)cc43)CC2)C1 (single isomer, unassigned) [Example 56, ethyl 3-(4-(5-fluoro-6-methyl-2-oxo-2,3-dihydro-1H-benzo[d]imidazol-1-yl)piperidin-1-yl)-3-methylpyrrolidine-1-carboxylate] | > 3.54 | 1.28 | 0.0035
CCOC(=O)N1CCC(C)(N2CCC(n3c(=O)[nH]c4cc(F)c(F)cc43)CC2)C1 (single isomer, unassigned) [Example 57, ethyl 3-(4-(5,6-difluoro-2-oxo-2,3-dihydro-1H-benzo[d]imidazol-1-yl)piperidin-1-yl)-3-methylpyrrolidine-1-carboxylate] | 3.55 | 0.356 | 0.0026
CCOC(=O)N1CCC(C)(N2CCC(n3c(=O)[nH]c4cc(F)c(F)cc43)CC2)C1 (single isomer, unassigned) [Example 58, ethyl 3-(4-(5,6-difluoro-2-oxo-2,3-dihydro-1H-benzo[d]imidazol-1-yl)piperidin-1-yl)-3-methylpyrrolidine-1-carboxylate] | > 40 | 2.21 | 0.0177
COC(=O)N1CCC(C)(N2CCC(n3c(=O)[nH]c4cc(F)c(F)cc43)CC2)C1 (single isomer, unassigned) [Example 60, methyl 3-(4-(5,6-difluoro-2-oxo-2,3-dihydro-1H-benzo[d]imidazol-1-yl)piperidin-1-yl)-3-methylpyrrolidine-1-carboxylate] | > 40 | > 7.27 | 0.0135
CC1(N2CCC(n3c(=O)[nH]c4cc(F)c(F)cc43)CC2)CCN(C(=O)OCCF)C1 (single isomer, unassigned) [Example 61, 2-fluoroethyl 3-(4-(5,6-difluoro-2-oxo-2,3-dihydro-1H-benzo[d]imidazol-1-yl)piperidin-1-yl)-3-methylpyrrolidine-1-carboxylate] | > 40 | > 2.71 | 0.0141
COC(=O)N1CCC(C)(N2CCC(N3C(=O)Cc4ccc(C)cc43)CC2)C1 (single isomer, unassigned) [Example 67, methyl 3-methyl-3-(4-(6-methyl-2-oxoindolin-1-yl)piperidin-1-yl)pyrrolidine-1-carboxylate] | > 33.5 | > 6.71 | 0.0209
COC(=O)N1CCC(C)(N2CCC(N3C(=O)Cc4ccc(C)cc43)CC2)C1 (single isomer, unassigned) [Example 68, methyl 3-methyl-3-(4-(6-methyl-2-oxoindolin-1-yl)piperidin-1-yl)pyrrolidine-1-carboxylate] | 2.33 | > 4.08 | 0.0133
CCOC(=O)N1CCC(C)(N2CCC(N3C(=O)Cc4ccc(C)cc43)CC2)C1 (single isomer, unassigned) [Example 69, ethyl 3-methyl-3-(4-(6-methyl-2-oxoindolin-1-yl)piperidin-1-yl)pyrrolidine-1-carboxylate] | > 40 | 1.37 | 0.011
CCOC(=O)N1CCC(C)(N2CCC(N3C(=O)Cc4ccccc43)CC2)C1 (single isomer, unassigned) [Example 72, ethyl 3-methyl-3-(4-(2-oxoindolin-1-yl)piperidin-1-yl)pyrrolidine-1-carboxylate] | > 40 | > 40 | 0.0095
CCOC(=O)N1CCC(C)(N2CCC(N3C(=O)Cc4ccccc43)CC2)C1 (single isomer, unassigned) [Example 73, ethyl 3-methyl-3-(4-(2-oxoindolin-1-yl)piperidin-1-yl)pyrrolidine-1-carboxylate] | > 40 | > 40 | 0.031
CCOC(=O)N1CCC(C)(N2CCC(N3C(=O)Cc4ccc(F)cc43)CC2)C1 (single isomer, unassigned) [Example 74, ethyl 3-(4-(6-fluoro-2-oxoindolin-1-yl)piperidin-1-yl)-3-methylpyrrolidine-1-carboxylate] | > 40 | > 21.2 | 0.01
CCOC(=O)N1CCC(C)(N2CCC(N3C(=O)Cc4ccc(F)cc43)CC2)C1 (single isomer, unassigned) [Example 75, ethyl 3-(4-(6-fluoro-2-oxoindolin-1-yl)piperidin-1-yl)-3-methylpyrrolidine-1-carboxylate] | > 40 | > 27 | 0.0475
CCOC(=O)N1CCC(C)(N2CCC(N3C(=O)Cc4cc(F)ccc43)CC2)C1 (single isomer, unassigned) [Example 79, ethyl 3-(4-(5-fluoro-2-oxoindolin-1-yl)piperidin-1-yl)-3-methylpyrrolidine-1-carboxylate] | > 40 | 2.54 | 0.0092
CCOC(=O)N1CCC(C)(N2CCC(N3C(=O)Cc4cc(F)c(C)cc43)CC2)C1 (single isomer, unassigned) [Example 81, ethyl 3-(4-(5-fluoro-6-methyl-2-oxoindolin-1-yl)piperidin-1-yl)-3-methylpyrrolidine-1-carboxylate] | > 13.3 | 1.24 | 0.0087

Source: patent publication US20090221642A1, “MUSCARINIC RECEPTOR AGONISTS, COMPOSITIONS, METHODS OF TREATMENT THEREOF, AND PROCESSES FOR PREPARATION THEREOF-176” (AstraZeneca AB, priority 2008, published 2009)
